Values of other authors as cited in article PMC10323144, “Garbage in, garbage out: how reliable training data improved a virtual screening approach against SARS-CoV-2 MPro” (Frontiers in Pharmacology, 2023).
Numbered stars: 1 amine (or outer) side, 2 acyl side, 3 side chain; on linkers, the order of the positions; unused ones are H or OH. Bridge positions count the residues as written; N and C are the ends. Square brackets hold non-standard residues; d marks the D form. Peptide text beside a SMILES is read from it. * marks the point of attachment. hTyr(3S-OH,4S-OH,3'-OSO3H) = N[C@H](C(=O)O)[C@H](O)[C@@H](O)c1ccc(O)c(OS(=O)(=O)O)c1; Orn(4R-OH,5R-OH) = O=C([C@H](C[C@@H](O)[C@@H](O)N[*:3])N[*:1])[*:2]; Pro(3S-OH,4S-Me) = C[C@H]1CN[C@H](C(=O)O)[C@H]1O; X1 = CCCCCOc1ccc(-c2cc(-c3ccc(C(=O)*)cc3)no2)cc1; Gln(3R-OH) = NC(=O)C[C@@H](O)[C@H](N)C(=O)O; Hyp = O=C(O)[C@@H]1C[C@@H](O)CN1

system: MPro; conditions: compiled from peer-reviewed sources (287 compounds) ref the 18 original articles; cited from earlier work

| Compound | Class (MPro activity class) |
| --- | --- |
| CC(=O)c1cc([N+](=O)[O-])c(Sc2cccc(Cl)c2Cl)s1 [P005091] | 0 (compounds with IC50 > 20 μM, percentage inhibition <80% at 20 µM or 50 μM, or percentage enzyme inhibition <50% at 10 µM were labelled as INACTIVE) |
| C[C@@]1(c2cc(-c3cncnc3)c(F)cc2F)CCSC(N)=N1 [LY2811376] | 0 (compounds with IC50 > 20 μM, percentage inhibition <80% at 20 µM or 50 μM, or percentage enzyme inhibition <50% at 10 µM were labelled as INACTIVE) |
| O=C(O)[C@H]1O[C@@H](Oc2cc3oc(-c4ccccc4)cc(=O)c3c(O)c2O)[C@H](O)[C@@H](O)[C@@H]1O [Baicalin] | 0 (compounds with IC50 > 20 μM, percentage inhibition <80% at 20 µM or 50 μM, or percentage enzyme inhibition <50% at 10 µM were labelled as INACTIVE) |
| Cc1ccncc1NC(=O)Cc1cccc(Cl)c1 [TRY-UNI-714a760b-6] | 0 (compounds with IC50 > 20 μM, percentage inhibition <80% at 20 µM or 50 μM, or percentage enzyme inhibition <50% at 10 µM were labelled as INACTIVE) |
| CC(C)CC(NC(=O)OCc1ccccc1)C(=O)NC(CC1CCNC1=O)C(O)S(=O)(=O)O (stereo not shown) [GC-376] | 1 (Compounds with IC50 < 10 µM or with a percentage of enzyme inhibition >50% at 10 µM were labelled as ACTIVE) |
| CC#CCn1c(N2CCCC(N)C2)nc2c1c(=O)n(Cc1nc(C)c3ccccc3n1)c(=O)n2C (stereo not shown) [Linafliptin] | 0 (compounds with IC50 > 20 μM, percentage inhibition <80% at 20 µM or 50 μM, or percentage enzyme inhibition <50% at 10 µM were labelled as INACTIVE) |
| O=C(CCl)N1CCN(Cc2cccc3ccccc23)CC1 [MED-COV-4280ac29-31] | 1 (Compounds with IC50 < 10 µM or with a percentage of enzyme inhibition >50% at 10 µM were labelled as ACTIVE) |
| O=c1[nH]cc(-c2cc(-c3cc(Cl)cc(OCc4cccc(F)c4)c3)c(=O)n(-c3cccnc3)c2)c(=O)[nH]1 [compound 19] | 1 (Compounds with IC50 < 10 µM or with a percentage of enzyme inhibition >50% at 10 µM were labelled as ACTIVE) |
| CC(NC(=O)C(O)c1cc(F)cc(F)c1)C(=O)NC1C(=O)N(C)c2ccccc2-c2ccccc21 (stereo not shown) [LY411575] | 0 (compounds with IC50 > 20 μM, percentage inhibition <80% at 20 µM or 50 μM, or percentage enzyme inhibition <50% at 10 µM were labelled as INACTIVE) |
| O=C(CCl)N1CCN(S(=O)(=O)c2cccs2)CC1 [LON-WEI-8f408cad-3] | 1 (Compounds with IC50 < 10 µM or with a percentage of enzyme inhibition >50% at 10 µM were labelled as ACTIVE) |
| CC(NC(=O)CCl)c1cc(Cl)cc(-c2ccc(S(N)(=O)=O)cc2)c1 (stereo not shown) [DAV-CRI-14a23e73-1] | 1 (Compounds with IC50 < 10 µM or with a percentage of enzyme inhibition >50% at 10 µM were labelled as ACTIVE) |
| COc1ccc(CC(NC(=O)C(C)NC(=O)CN2CCOCC2)C(=O)NC(Cc2ccccc2)C(=O)C2(C)CO2)cc1 (stereo not shown) [ONX-0914] | 0 (compounds with IC50 > 20 μM, percentage inhibition <80% at 20 µM or 50 μM, or percentage enzyme inhibition <50% at 10 µM were labelled as INACTIVE) |
| CCc1nc(-c2cccc(C)c2)c(-c2ccnc(NC(=O)c3ccccc3)c2)s1 [TAK-715] | 0 (compounds with IC50 > 20 μM, percentage inhibition <80% at 20 µM or 50 μM, or percentage enzyme inhibition <50% at 10 µM were labelled as INACTIVE) |
| O=c1[nH]cc(-c2cc(-c3cc(Cl)cc(OCc4ccccc4F)c3)c(=O)n(-c3cccnc3)c2)c(=O)[nH]1 [compound 18] | 1 (Compounds with IC50 < 10 µM or with a percentage of enzyme inhibition >50% at 10 µM were labelled as ACTIVE) |
| CC(C)CC(NC(=O)OCc1ccccc1)C(=O)NC(CC1CCNC1=O)C(=O)C(=O)NC1CC1 (stereo not shown) [UAWJ246] | 1 (Compounds with IC50 < 10 µM or with a percentage of enzyme inhibition >50% at 10 µM were labelled as ACTIVE) |
| CCCCCOc1ccc(-c2cc(-c3ccc(C(=O)N[C@H]4C[C@@H](O)[C@@H](O)NC(=O)[C@@H]5[C@@H](O)[C@@H](C)CN5C(=O)[C@H]([C@H](O)CC(N)=O)NC(=O)[C@H]([C@H](O)[C@@H](O)c5ccc(O)c(OS(=O)(=O)O)c5)NC(=O)[C@@H]5C[C@@H](O)CN5C(=O)[C@H]([C@@H](C)O)NC4=O)cc3)no2)cc1 [Micafungin] (X1-[Orn(4R-OH,5R-OH)]T[Hyp][hTyr(3S-OH,4S-OH,3'-OSO3H)][Gln(3R-OH)][Pro(3S-OH,4S-Me)]; lactam 1-C) | 0 (compounds with IC50 > 20 μM, percentage inhibition <80% at 20 µM or 50 μM, or percentage enzyme inhibition <50% at 10 µM were labelled as INACTIVE) |
| O=C(O)c1nn(Cc2ccc(Cl)cc2Cl)c2ccccc12 [LONIDAMINE] | 0 (compounds with IC50 > 20 μM, percentage inhibition <80% at 20 µM or 50 μM, or percentage enzyme inhibition <50% at 10 µM were labelled as INACTIVE) |
| CNc1ccc(N(Cc2ccsc2)C(=O)Cn2nnc3ccccc32)cc1 [16j] | 1 (Compounds with IC50 < 10 µM or with a percentage of enzyme inhibition >50% at 10 µM were labelled as ACTIVE) |
| CC(O)(CS(=O)(=O)c1ccc(F)cc1)C(=O)Nc1ccc(C#N)c(C(F)(F)F)c1 (stereo not shown) [Bicalutamide] | 0 (compounds with IC50 > 20 μM, percentage inhibition <80% at 20 µM or 50 μM, or percentage enzyme inhibition <50% at 10 µM were labelled as INACTIVE) |

| Compound | Class (MPro activity class) |
| --- | --- |
| Cc1[nH]c2ccccc2c1C=NN(C)C(=O)c1ccc2c(c1)OCO2 [LASSBio-1649 (13)] | 0 (compounds with IC50 > 20 μM, percentage inhibition <80% at 20 µM or 50 μM, or percentage enzyme inhibition <50% at 10 µM were labelled as INACTIVE) |
| O=C(O)[C@H]1O[C@@H](Oc2cc3oc(-c4ccc(O)cc4)cc(=O)c3c(O)c2O)[C@H](O)[C@@H](O)[C@@H]1O [Scutellarin] | 0 (compounds with IC50 > 20 μM, percentage inhibition <80% at 20 µM or 50 μM, or percentage enzyme inhibition <50% at 10 µM were labelled as INACTIVE) |
| CC(C)CC(C=O)NC(=O)C(NS(=O)(=O)c1ccc(F)cc1)C(C)C (stereo not shown) [Calpain inhibitor VI] | 0 (compounds with IC50 > 20 μM, percentage inhibition <80% at 20 µM or 50 μM, or percentage enzyme inhibition <50% at 10 µM were labelled as INACTIVE) |
| COCc1cc(Cl)cc(CN2CCN(C(=O)CCl)CC2)c1 [MED-COV-4280ac29-33] | 1 (Compounds with IC50 < 10 µM or with a percentage of enzyme inhibition >50% at 10 µM were labelled as ACTIVE) |
| CCCOc1cc(Cl)cc(-c2cc(-c3ccccc3C#N)cn(-c3cncnc3)c2=O)c1 [compound 9] | 1 (Compounds with IC50 < 10 µM or with a percentage of enzyme inhibition >50% at 10 µM were labelled as ACTIVE) |
| O=C1c2ccccc2NC(c2cc(Cl)ccc2O)N1N=Cc1cc(Cl)ccc1O (stereo not shown) [QZ2] | 1 (Compounds with IC50 < 10 µM or with a percentage of enzyme inhibition >50% at 10 µM were labelled as ACTIVE) |
| O=C(C=Cc1ccc(O)c(O)c1)OC1CC(OC(=O)C=Cc2ccc(O)c(O)c2)(C(=O)O)CC(O)C1O (stereo not shown) [1,3-Dicaffeoylquinic acid] | 0 (compounds with IC50 > 20 μM, percentage inhibition <80% at 20 µM or 50 μM, or percentage enzyme inhibition <50% at 10 µM were labelled as INACTIVE) |
| Cc1ccncc1NC(=O)Cc1cccc(C#N)c1 [TRY-UNI-714a760b-20] | 0 (compounds with IC50 > 20 μM, percentage inhibition <80% at 20 µM or 50 μM, or percentage enzyme inhibition <50% at 10 µM were labelled as INACTIVE) |
| COc1cc2c(cc1Cc1cccc(Cl)c1F)c(=O)c(C(=O)O)cn2[C@H](CO)C(C)C [Elvitegravir] | 0 (compounds with IC50 > 20 μM, percentage inhibition <80% at 20 µM or 50 μM, or percentage enzyme inhibition <50% at 10 µM were labelled as INACTIVE) |
| COC[C@H](NC(=O)c1cnc(C)s1)C(=O)N[C@@H](COC)C(=O)N[C@@H](Cc1ccccc1)C(=O)[C@@]1(C)CO1 [Oprozomib] | 0 (compounds with IC50 > 20 μM, percentage inhibition <80% at 20 µM or 50 μM, or percentage enzyme inhibition <50% at 10 µM were labelled as INACTIVE) |
| O=C(NN=Cc1c[nH]cn1)C1CCCCC1 [LASSBio-1600 (15)] | 0 (compounds with IC50 > 20 μM, percentage inhibition <80% at 20 µM or 50 μM, or percentage enzyme inhibition <50% at 10 µM were labelled as INACTIVE) |
| O=C1c2ccccc2NC(c2cc(Br)ccc2O)N1N=Cc1cc(Br)ccc1O (stereo not shown) [QZ1] | 0 (compounds with IC50 > 20 μM, percentage inhibition <80% at 20 µM or 50 μM, or percentage enzyme inhibition <50% at 10 µM were labelled as INACTIVE) |
| O=C(Nc1cnn2ccc(N3CCC[C@@H]3c3cc(F)ccc3F)nc12)N1CC[C@H](O)C1 [LAROTRECTINIB] | 0 (compounds with IC50 > 20 μM, percentage inhibition <80% at 20 µM or 50 μM, or percentage enzyme inhibition <50% at 10 µM were labelled as INACTIVE) |
| C=CC(=O)N(c1ccc(C(C)(C)C)cc1)C(C(=O)NCCc1cccc(F)c1)c1cccnc1 (stereo not shown) [LON-WEI-adc59df6-47] | 1 (Compounds with IC50 < 10 µM or with a percentage of enzyme inhibition >50% at 10 µM were labelled as ACTIVE) |
| Cc1cc(Cn2nnc3c(-c4ccco4)nc(N)nc32)ccc1N [VIPADENANT] | 0 (compounds with IC50 > 20 μM, percentage inhibition <80% at 20 µM or 50 μM, or percentage enzyme inhibition <50% at 10 µM were labelled as INACTIVE) |
| COc1cc(Cl)cc(-c2cc(-c3c[nH]c(=O)[nH]c3=O)cn(-c3cccnc3)c2=O)c1 [compound 10] | 1 (Compounds with IC50 < 10 µM or with a percentage of enzyme inhibition >50% at 10 µM were labelled as ACTIVE) |
| COC(=O)NC(C(=O)NC(Cc1ccccc1)C(O)CN(Cc1ccc(-c2ccccn2)cc1)NC(=O)C(NC(=O)OC)C(C)(C)C)C(C)(C)C (stereo not shown) [Atanazavir] | 0 (compounds with IC50 > 20 μM, percentage inhibition <80% at 20 µM or 50 μM, or percentage enzyme inhibition <50% at 10 µM were labelled as INACTIVE) |
| CC(C)c1nc(CN(C)C(=O)N[C@@H](CCN2CCOCC2)C(=O)N[C@H](CC[C@H](Cc2ccccc2)NC(=O)OCc2cncs2)Cc2ccccc2)cs1 [cobicistat] | 1 (Compounds with IC50 < 10 µM or with a percentage of enzyme inhibition >50% at 10 µM were labelled as ACTIVE) |
